TGI and GI50 data for 18 compounds are collected here from PubChem BioAssay (NCI).

Among the test systems are LOX IMVI melanoma; OVCAR-8 ovarian; ACHN renal; SF-539 CNS; UACC-62 melanoma; SK-OV-3 ovarian; HCT-116 colon; HCT-15 colon; SW-620 colon; HCC-2998 colon.
Assay in all cases: inhibition of tumour cell growth, NCI panel, 48 h

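How tested: cells in 96-well plates exposed to compound for 48 hours at five concentrations. GI50 = concentration required for 50% inhibition of growth. TGI: concentration producing complete growth inhibition.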

As for `O=C(Nc1cc(Cl)ccc1Cl)c1cc2ccccc2oc1=O`, the TGI in the test on LOX IMVI melanoma, in the test with OVCAR-8 ovarian, in the test on ACHN renal, in the test on SF-539 CNS, in the test on UACC-62 melanoma and with SK-OV-3 ovarian was more than 100 µM each time. For the same compound, the TGI in the test with HCT-116 colon, in the test on HCT-15 colon and with SW-620 colon was more than 100 µM each time.
Regarding `N=C(N)c1ccc(-c2ccc(-c3cccs3)s2)cc1F`, the GI50 was 1210 nM in the test on LOX IMVI melanoma; 2.04 µM in the test with OVCAR-8 ovarian; 1450 nM in the test with ACHN renal; 1.35 µM in the test on SF-539 CNS; 1.62 µM in the test on UACC-62 melanoma; 1.29 µM in the test with HCC-2998 colon. Further, the GI50 is 922 nM in the test on HCT-116 colon, 629 nM in the test with HCT-15 colon and 0.506 µM in the test on SW-620 colon. Besides, the TGI with LOX IMVI melanoma amounted to 2.67 µM; in the test with OVCAR-8 ovarian, 5.19 µM; in the test on ACHN renal, 2.93 µM; in the test with SF-539 CNS, 3.38 µM; in the test with UACC-62 melanoma, 3.34 µM; with HCC-2998 colon it was 2.93 µM. Further, the TGI was 2.37 µM in the test on HCT-116 colon, 2.09 µM with HCT-15 colon and 1.94 µM in the test with SW-620 colon.
With `O=c1c2cc(F)ccc2sc2c(NCCCNCCO)nc3ccc(F)cc3c12`, the GI50 was 1570 nM in the test with LOX IMVI melanoma; 2.09 µM with OVCAR-8 ovarian; 1540 nM in the test with ACHN renal; 1.68 µM with SF-539 CNS; 1.72 µM with UACC-62 melanoma; 1.64 µM in the test with HCC-2998 colon. For the same compound, the results for the GI50 in the test with HCT-116 colon, in the test on HCT-15 colon and with SW-620 colon were 1840 nM, 1490 nM and 1.73 µM, respectively. Moreover, the TGI in the test with LOX IMVI melanoma is 3.06 µM; in the test on OVCAR-8 ovarian it was 4.75 µM; in the test on ACHN renal, 2.89 µM; in the test with SF-539 CNS, 3.12 µM; in the test on UACC-62 melanoma, 3.25 µM; in the test with HCC-2998 colon it was 3.18 µM. Besides, the results for the TGI in the test on HCT-116 colon, with HCT-15 colon and in the test with SW-620 colon were 3.63 µM, 2.91 µM and 3.48 µM, respectively.
For the compound `COc1ccc2c(c1)c(-c1nc(-c3cn(C)c4ncccc34)cs1)cn2CCCCN1CCCCC1`, the GI50 is 1650 nM with ACHN renal, 1.71 µM in the test with SK-OV-3 ovarian, 1450 nM in the test on HCT-15 colon and 1.62 µM with SW-620 colon. In addition, the TGI in the test on ACHN renal was 3 µM; in the test on SK-OV-3 ovarian, 3.15 µM; with HCT-15 colon, 2.8 µM; in the test with SW-620 colon, 2.99 µM.
In the case of `O=c1[nH]c(-c2ccncc2)nc2sc3c(c12)CCCCCC3`, the GI50 was more than 100000 nM in the test on LOX IMVI melanoma; more than 100 µM with OVCAR-8 ovarian; more than 100000 nM with ACHN renal; more than 100 µM in the test on SF-539 CNS; more than 100 µM with UACC-62 melanoma; more than 100 µM in the test on HCC-2998 colon. In addition, the GI50 with HCT-15 colon was more than 100000 nM; in the test with SW-620 colon, more than 100 µM. Also, the TGI with LOX IMVI melanoma, with OVCAR-8 ovarian, in the test with ACHN renal, in the test on SF-539 CNS, in the test with UACC-62 melanoma and with HCC-2998 colon was more than 100 µM each time. Besides, the TGI with HCT-15 colon and in the test on SW-620 colon was more than 100 µM in each case.
In the case of `Cc1nc2ccccc2c(=O)n1/N=C(\N=Nc1ccc(Cl)cc1)c1ccc(N(C)C)cc1`, the TGI with LOX IMVI melanoma, in the test on OVCAR-8 ovarian, in the test on ACHN renal, with SF-539 CNS, in the test on UACC-62 melanoma and in the test with SK-OV-3 ovarian was more than 100 µM throughout. The TGI with HCT-116 colon, in the test with HCT-15 colon and with SW-620 colon was more than 100 µM in each case.
Take `C=C(CN1CCc2ccccc2C1)c1ccc(C(=O)Nc2cccc(N)c2)cc1`: the GI50 in the test on OVCAR-8 ovarian was 20.6 µM; in the test on ACHN renal, 28800 nM; with SF-539 CNS, 17.4 µM; in the test on UACC-62 melanoma, 17.1 µM; in the test with HCC-2998 colon, 17.1 µM; with SK-OV-3 ovarian, 29.5 µM. Moreover, the GI50 was 16000 nM in the test on HCT-116 colon, 27400 nM with HCT-15 colon and 23 µM in the test with SW-620 colon. Further, the TGI with OVCAR-8 ovarian was found to be 44.7 µM; with ACHN renal, 87.1 µM; in the test on SF-539 CNS, 35.3 µM; in the test with UACC-62 melanoma it was 33.3 µM; in the test with HCC-2998 colon, 31.9 µM; in the test with SK-OV-3 ovarian, 73.5 µM. In addition, the TGI in the test with HCT-116 colon came out at 33.5 µM; in the test with HCT-15 colon it was 69.8 µM; in the test on SW-620 colon, 52.1 µM.
As for `C#CC[C@]12CC(=O)CC[C@H]1CC1(C2)OCCO1`, the TGI in the test on OVCAR-8 ovarian, with ACHN renal, in the test with SF-539 CNS, with UACC-62 melanoma, with HCC-2998 colon and with SK-OV-3 ovarian was more than 100 µM throughout. The TGI in the test with HCT-116 colon, with HCT-15 colon and with SW-620 colon was more than 100 µM each time.
As to `CCCCP1(=O)C=CC(Cl)=C(C)C1` (configuration not stated), the TGI with OVCAR-8 ovarian, with ACHN renal, in the test on SF-539 CNS, with UACC-62 melanoma, in the test on HCC-2998 colon and in the test with HCT-116 colon was more than 100 µM in each case. Also, the TGI in the test on HCT-15 colon and in the test on SW-620 colon was more than 100 µM in each case.
For `C=CN(C(=O)N1CCN(c2cc3c(cc2F)c(=O)c(C(=O)O)cn3C2CC2)CC1)c1nc(-c2ccc(C)cc2)cs1`, the GI50 is 3.33 µM in the test with OVCAR-8 ovarian; 3380 nM with ACHN renal; 3.85 µM in the test on HCC-2998 colon; 319 nM in the test with HCT-116 colon; 2960 nM with HCT-15 colon; 4.5 µM with SW-620 colon. Besides, the TGI was 19.9 µM in the test with OVCAR-8 ovarian; more than 100 µM with ACHN renal; more than 100 µM in the test with HCC-2998 colon; more than 100 µM in the test with HCT-116 colon; more than 100 µM in the test on HCT-15 colon; more than 100 µM in the test with SW-620 colon.
For the compound `O=P(c1ccccc1)(c1ccccc1)C1CC=C2CCCCCC2C1` (configuration not stated), the TGI in the test on LOX IMVI melanoma is 65 µM; in the test with OVCAR-8 ovarian, 99.2 µM; in the test on SF-539 CNS, more than 10 µM; with UACC-62 melanoma it was 69.6 µM; in the test with SK-OV-3 ovarian it was 85.9 µM; with HCT-116 colon, 40.3 µM. In addition, the TGI with HCT-15 colon was more than 100 µM; with SW-620 colon, more than 10 µM.
Take `c1c[nH]c(CN2CCN(Cc3ncc[nH]3)CC2)n1`: the TGI in the test with LOX IMVI melanoma, with OVCAR-8 ovarian, with ACHN renal, with SF-539 CNS, with UACC-62 melanoma and in the test on SK-OV-3 ovarian was more than 100 µM throughout. Also, the TGI with HCT-116 colon, with HCT-15 colon and in the test on SW-620 colon was more than 100 µM in each case.
With `N#Cc1cccc(C2SCc3nc4ccccc4n32)c1` (configuration not stated), the TGI in the test on LOX IMVI melanoma, in the test on OVCAR-8 ovarian, in the test with ACHN renal, in the test on SF-539 CNS, in the test with UACC-62 melanoma and in the test with SK-OV-3 ovarian was more than 100 µM throughout. Besides, the TGI with SW-620 colon was more than 100 µM.
For `Cc1nn(-c2ccccc2)c2c1[C@@H](C)[C@H]1CC3(CC4(C)C[C@@H]3C1(C)c1c(C)nn(-c3ccccc3)c1N4C)N2C` (some centres not stated), the GI50 was more than 100 µM in the test with SF-539 CNS, more than 100 µM in the test with HCC-2998 colon and 24.1 µM in the test on SK-OV-3 ovarian. For the same compound, the TGI in the test with SF-539 CNS, with HCC-2998 colon and with SK-OV-3 ovarian was more than 100 µM each time.
Consider `Cc1cc(C)c(CNC(=O)c2cc(Cl)c3c(c2C)O[C@@](C)(C2CCC(N(C)C)CC2)O3)c(=O)[nH]1` (some centres not stated), for which the GI50 in the test with LOX IMVI melanoma was 47800 nM; with OVCAR-8 ovarian it was more than 100 µM; with ACHN renal it was more than 100000 nM; in the test on SF-539 CNS it was 57.9 µM; with UACC-62 melanoma, more than 100 µM; with HCC-2998 colon it was more than 100 µM. In addition, the results for the GI50 with HCT-116 colon, in the test on HCT-15 colon and in the test on SW-620 colon were 40300 nM, more than 100000 nM and more than 100 µM, respectively. Besides, the TGI in the test on LOX IMVI melanoma, in the test with OVCAR-8 ovarian, in the test on ACHN renal, in the test with SF-539 CNS, in the test on UACC-62 melanoma and in the test on HCC-2998 colon was more than 100 µM in each case. Moreover, the TGI in the test on HCT-116 colon, in the test on HCT-15 colon and in the test with SW-620 colon was more than 100 µM each time.
Consider `CCN(CC)CCN1C(=O)c2cccc3cc(N)cc(c23)C1=O`, for which the TGI was more than 100 µM in the test on OVCAR-8 ovarian; more than 100 µM with ACHN renal; 20.4 µM in the test on SF-539 CNS; 24.6 µM in the test on UACC-62 melanoma; 21.7 µM in the test on HCC-2998 colon; 69.3 µM in the test on SK-OV-3 ovarian. The figures for the TGI in the test on HCT-116 colon, with HCT-15 colon and in the test with SW-620 colon were 38.5 µM, more than 100 µM and 83.3 µM, respectively.
For `O=C1C(=C2C(=O)c3ccccc3[N+]2=O)N([O-])c2ccccc21`, the TGI was 29.8 µM in the test with LOX IMVI melanoma; 50.4 µM in the test with OVCAR-8 ovarian; 91.4 µM in the test with ACHN renal; 47.7 µM in the test on SF-539 CNS; more than 100 µM in the test with SK-OV-3 ovarian; 47.5 µM in the test on SW-620 colon.
In the case of `C=CC(C)(C)[C@@]12CC3C(=O)N[C@@H](Cc4ccccc4)C(=O)N3[C@@H]1N(C(C)=O)c1ccccc12` (some centres not stated), the TGI in the test on LOX IMVI melanoma, in the test on OVCAR-8 ovarian, in the test on ACHN renal, with SF-539 CNS, with UACC-62 melanoma and in the test on SK-OV-3 ovarian was more than 100 µM each time. In addition, the TGI in the test on HCT-116 colon, in the test on HCT-15 colon and with SW-620 colon was more than 100 µM in each case.
